Source: patent US8236510B2, “Protein showing enhanced expression in cancer cells” (Agensys, Inc., priority 1999, dated 2012)
Entries after “also recorded” stand apart in the source; their conditions may differ. Ends that are not written are not given here.

Key:
[1] = system: ERK phosphorylation in PC3-101P3A11 cells; assay: ERK phosphorylation in PC3-101P3A11 and PC3-neo cells (anti-Phospho-ERK Western blot); type: cell-based, human; settings: for inhibition of ERK phosphorylation and activation: PC3-101P3A11 and 3T3-101P3A11 cells, FBS
Method: Using Western blotting and other techniques, the ability of 101P3A11 to regulate these pathways is confirmed. Cells expressing or lacking 101P3A11 are either left untreated or stimulated with cytokines, androgen and anti-integrin antibodies. Cell lysates were analyzed using anti-phospho-specific antibodies (Cell Signaling, Santa Cruz Biotechnology) in order to detect phosphorylation and regulation of ERK, p38, AKT, PI3K, PLC and other signaling molecules. […] In the experiment, data shown in FIG. 26, control 3T3-neo and 3T3-101P3A11 cells were either treated with 0.5 or 10% FBS and whole cell lysates were analyzed by anti-phosphotyrosine Western blotting.
In this experiment, control PC3-neo cells and PC3-101P3A11 cells were left untreated (0.1% FBS) or were stimulated with 10% FBS, lipophosphatidic acid (LPA), gastrin releasing peptide (GRP), leukotriene (LKB4) or platelet activating factor (PAF). The cells were lysed and analyzed by Western blotting using anti-Phospho-ERK (FIG. 27A) or anti-ERK (FIG. 27B) mAb. […] In order to delineate the signaling pathway by which 101P3A11 mediates ERK phosphorylation in cancer cells, it was confirmed which of the two pathway inhibitors: MEK inhibitor PD98059 or the p38 inhibitor SB203580 regulate 101P3A11 mediated ERK phosphorylation (FIG. 28). […] Cells were lysed and analyzed by Western blotting using anti-Phospho-ERK or anti-ERK mAb. Treatment with 10% FBS or with GRP induced the phosphorylation of ERK in PC3-101P3A11 but not in control PC3-neo cells. 101P3A11-mediated ERK phosphorylation was inhibited by the MEK-1 inhibitor PD98059 but not the p38 inhibitor SB203580 or genistein.
Results in FIGS. 26-28 indicate that 101P3A11 regulates the activity of kinases, including ERK, and phosphatases. In order to confirm the association of 101P3A11 with phosphatase activity, the effect of the protein phosphatase inhibitor sodium orthovanadate on 101P3A11 mediated ERK phosphorylation was determined (FIG. 29). PC3-neo and PC3-101P3A11 cells were grown in media alone or in the presence of sodium orthovanadate (Na3VO4), and were stimulated with 0.1% or 10% FBS. Cells were lysed and analyzed by Western blotting using anti-Phospho-ERK or anti-ERK mAb. […] Results in FIG. 29 confirm the contribution of protein phosphatases to 101P3A11 mediated signaling.
In order to determine whether 101P3A11 signaling results in the activation of EGFR, we compared the effect of the EGFR inhibitor, AG1517, on EGFR- and 101P3A11-mediated ERK phosphorylation (FIG. 30). In FIG. 30, PC3-neo and PC3-101P3A11 cells were grown in media alone (0.1% FBS) or in the presence of AG1517. The cells were stimulated with 0.1% or 10% FBS, GRP or EGF, lysed and analyzed by Western blotting using anti-Phospho-ERK or anti-ERK mAb. Treatment with 10% FBS, GRP and EGF induced ERK phosphorylation in PC3-101P3A11 cells. […] Data in FIG. 30 indicate that some cross talk occurred between 101P3A11 and EGFR signaling pathways.
(§1) Since adenylate cyclase activity modulates intracellular levels of cAMP and induce downstream signaling events such as activation of protein kinase A, calcium and ERK MAPK signaling (Pierce K. L., et al, Oncogene. 2001, 20: 1532), we determined that PTX, an inhibitor of adenylate cyclase signaling, prevents 101P3A11-mediated ERK phosphorylation along with inhibiting cAMP accumulation (FIG. 33 and FIG. 34). PC3-neo and PC3-101P3A11 cells were grown overnight in 0.1% FBS in media alone or in the presence of pertussis toxin (PTX). Cells were stimulated with 0.1% or 10% FBS (FIG. 33) or 10% FBS, EGF or GRP (FIG. 34). Cells were lysed and analyzed by Western blotting using anti-Phospho-ERK mAb. Expression of 101P3A11 mediated ERK phosphorylation by 10% FBS in PC3 cells, which was inhibited by PTX (FIG. 33 and FIG. 34).
GPCR transmit their signal by activating trimeric G proteins. […]

[2] = system: 3T3-101P3A11 cells; assay: Proliferation of 3T3 and 3T3-101P3A11 cells (Alamar blue); type: cell-based; settings: for effect on proliferation: control 3T3 cells
[3] = system: PC3-101P3A11 cells; assay: Proliferation of PC3-101P3A11 and PC3-neo cells; type: cell-based, human; settings: PC3-101P3A11 cells grown in 5% FBS
Method: as §1
GPCR transmit their signal by activating trimeric G proteins. Once GPCRs are activated, the associated Ga subunit binds GTP, dissociates from the receptor and participates in downstream signaling events (Schild, D., and Restrepo, D. Physiol Rev. 1998, 78:429-66). In order to determine that inhibition of Ga subunits has an effect on 101P3A11 mediated cell growth, the effect of two Ga inhibitors on the proliferation of 3T3-101P3A11 cells was investigated. Control 3T3 and 3T3-101P3A11 cells were grown in the presence or absence of suramin or its derivative NF 449 (Sigma). Cells were analyzed for proliferation 72 hours later (FIG. 35). The experiment was performed in triplicate. […] This response was 101P3A11 specific as suramin and NF449 had no effect on the proliferation of control 3T3 cells. Similarly, inhibition of G protein activation by suramin and NF449 in PC3 cells inhibits the proliferation of PC3-101P3A11 cells grown in 5% FBS (Figure M4). […] This ERK phosohorylation and activation was inhibited by suramin and NF449 in PC3-101P3A11 and 3T3-101P3A11 cells. ERK phosphorylation was inhibited in a dose dependent manner in PC3-101P3A11 cells treated with suramin. […]

[4] = system: LAPC-9 cells; assay: Androgen regulation in LAPC-9 cells (Northern blot); type: cell-based; settings: charcoal-stripped medium
Method: In order to assay for androgen regulation of 101P3A11 expression, LAPC-9 cells were grown in charcoal-stripped medium and stimulated with the synthetic androgen mibolerone, for either 14 or 24 hours (FIG. 15A, FIG. 15B, and FIG. 15C). Northern blots with 10 μg of total RNA/lane were probed with the 101P3A11 sequences (FIG. 15A). A picture of the ethidium-bromide staining of the RNA gel is also presented (FIG. 15C). […] The experimental samples were confirmed by testing for the expression of the androgen-regulated prostate cancer gene PSA (FIG. 15B).

[5] = system: 3T3-101P3A11 tumors; assay: Subcutaneous growth of 3T3-101P3A11 tumors in SCID mice; type: in vivo
Method: (2) Regulated expression under control of an inducible vector system, such as ecdysone, tet, etc., can be used provided such promoters are compatible with the host cell systems. […] FIG. 21 compares subcutaneous growth of control 3T3-neo and 3T3-101P3A11 cells. One million cells stably expressing neo or 101P3A11 were injected subcutaneously in SCID mice along with matrigel. Tumor volume was evaluated by caliper measurements. […] Additionally, SCID mice were implanted with the same 3T3-101P3A11 cells orthotopically in the prostate to determine if 101P3A11 has an effect on local growth in the prostate or on the ability of the cells to metastasize, specifically to lungs or lymph nodes. […] In an analogous manner, cells can be implanted orthotopically in the bladder, colon or kidney. (Saffran, D., et al., PNAS 10:1073-1078; Fu, X., et al., Int. J. Cancer, 1991, 49: p. 938-939; Chang, S., et al., Anticancer Res., 1997, 17: p. 3239-3242; Peralta, E. A., et al., J. Urol., 1999, 162: p. 1806-1811). The tumor enhancing effect of 101P3A11 was also observed when 101P3A11 is expressed in prostate cancer cells such as PC3 and introduced into the prostate of SCID mice (Figure M11). A 2.5 fold increase in tumor weight is observed in tumors expressing 101P3A11 relative to control cells.
Furthermore, these assays is useful to confirm the anti-101P3A11 inhibitory effects of candidate therapeutic compositions, such as for example, 101P3A11 antibodies or intrabodies, and 101P3A11 antisense molecules or ribozymes, or 101P3A11 directed small molecules. In FIG. 22, we depict the effect of a small molecule, pertussis toxin (PTX) on tumor formation by 3T3-101P3A11 cells. In this experiment, SCID mice were injected with 3T3-101P3A11 alone or in conjunction with PTX. Each mouse was given 5 doses of PTX at 3-4 days interval. Tumor volume was evaluated by caliper measurements. […] Similarly, treatment with the G-protein inhibitor suramin inhibits the growth of 3T3-101P3A11 tumors (Figure M13).

[6] = 101P3A11 expressing 3T3 cells, Alamar blue after 72 hours

`COc1cc2ncnc(Nc3cccc(Br)c3)c2cc1OC` [AG1517] was tested, and the “inhibition of 101P3A11 mediated ERK phosphorylation” value ([1]; PC3-101P3A11 cells treated with 10% FBS) was “partially inhibits” and the “inhibition of EGF-mediated ERK phosphorylation” value ([1]; control and 101P3A11-expressing PC3 cells, EGF) was “completely inhibited; also recorded: inhibits”.

`CCCCC/C=C\C[C@@H](O)/C=C/C=C/C=C\[C@@H](O)CCCC(=O)O` [LKB4, leukotriene] was tested, and the “ERK phosphorylation by GPCR ligands” value ([1]; PC3-101P3A11 cells) was “more modest level of ERK phosphorylation”.

For `O=C(Nc1cc(C(=O)Nc2ccc(S(=O)(=O)O)cc2S(=O)(=O)O)cc(C(=O)Nc2ccc(S(=O)(=O)O)cc2S(=O)(=O)O)c1)Nc1cc(C(=O)Nc2ccc(S(=O)(=O)O)cc2S(=O)(=O)O)cc(C(=O)Nc2ccc(S(=O)(=O)O)cc2S(=O)(=O)O)c1` [NF449], the “inhibition of ERK phosphorylation and activation” value [1] was “inhibited”, the inhibition of proliferation ([2]; 3T3-101P3A11 cells, 72 hours) was 80% and the inhibition of proliferation [2, 6] was “inhibited”. For the same molecule, the effect on proliferation ([2]; 72 hours) was “no effect” and the inhibition of proliferation [3] was “inhibits”.

For `[Na+].[Na+].[Na+].[O]=[V]([O-])([O-])[O-]` [Na3VO4, sodium orthovanadate], the “increase in ERK phosphorylation” value ([1]; PC3-101P3A11 cells) was 4.5 fold and the “increase in ERK phosphorylation” value ([1]; PC3-neo cells) was “two-fold increase”.

With `COc1cccc(-c2cc(=O)c3ccccc3o2)c1N` [PD98059] the “inhibition of 101P3A11-mediated ERK phosphorylation” value ([1]; PC3-101P3A11 cells stimulated with FBS or GRP) was “inhibited”.

In the case of `C[C@@H]1CC2=CC(=O)CC[C@@H]2[C@H]2CC[C@@]3(C)[C@@H](CC[C@]3(C)O)[C@@H]21` [mibolerone], the “expression of PSA” value ([4]; 14 and 24 hours) is reported as “induced” and the “expression of 101P3A11” value ([4]; 14 or 24 hours) is reported as “not regulated”.

`Cc1ccc(C(=O)Nc2ccc(S(=O)(=O)O)c3cc(S(=O)(=O)O)cc(S(=O)(=O)O)c23)cc1NC(=O)c1cccc(NC(=O)Nc2cccc(C(=O)Nc3cc(C(=O)Nc4ccc(S(=O)(=O)O)c5cc(S(=O)(=O)O)cc(S(=O)(=O)O)c45)ccc3C)c2)c1` [suramin] was tested, and the “inhibition of ERK phosphorylation and activation” value [1] was “inhibited”, the inhibition of proliferation ([2]; 3T3-101P3A11 cells, 72 hours) was 60% and the inhibition of proliferation [2, 6] was “inhibited”. The effect on proliferation ([2]; 72 hours) was “no effect”, the inhibition of proliferation [3] was “inhibits” and the “inhibition of growth of 3T3-101P3A11 tumors” value [5] was “inhibits”.

In the case of “gastrin releasing peptide (VPLPAGGGTVLTKMYPRGNHWAVGHLM; ends and bridges not checked; UniProt P07492 24-50, looked up) [GRP, GPCR ligand]”, the “ERK phosphorylation by GPCR ligands” value ([1]; PC3-101P3A11 cells) is reported as “significant ERK phosphorylation”.

With lipophosphatidic acid [LPA] the “ERK phosphorylation by GPCR ligands” value ([1]; PC3-101P3A11 cells) was “significant ERK phosphorylation”.

With platelet activating factor [PAF] the “ERK phosphorylation by GPCR ligands” value ([1]; PC3-101P3A11 cells) was “significant ERK phosphorylation”.
